Reference: ChEMBL document CHEMBL1135080, “Pyridazine based inhibitors of p38 MAPK” (Bioorg Med Chem Lett, 2002)
pIC50: −log10 of the molar value.

What was measured:
[1] = target: T1, MAP kinase p38 (Homo sapiens, UniProt O15264+Q15759+Q16539+P53778); assay: Inhibition of Mitogen-activated protein kinase p38; type: protein assay
[2] = target: RAF proto-oncogene serine/threonine-protein kinase (Homo sapiens) (UniProt P04049); assay: Inhibition of c-Raf kinase at 5000 nM
[3] = target: Tyrosine-protein kinase Lck (Homo sapiens) (UniProt P06239); assay: Inhibition of LCK1 kinase at 15000 nM
[4] = target: T2, Mitogen-activated protein kinase 9 (Homo sapiens, UniProt P45984); assay: Inhibition of JNK2-alpha-2 kinase
[5] = target: T2, Mitogen-activated protein kinase 9; assay: Inhibition of JNK2-alpha-1 kinase
[6] = target: T1, MAP kinase p38; assay: Inhibition of Mitogen-activated protein kinase p38 at 1000 nM; type: protein assay

T2 sequence (P45984 whole entry): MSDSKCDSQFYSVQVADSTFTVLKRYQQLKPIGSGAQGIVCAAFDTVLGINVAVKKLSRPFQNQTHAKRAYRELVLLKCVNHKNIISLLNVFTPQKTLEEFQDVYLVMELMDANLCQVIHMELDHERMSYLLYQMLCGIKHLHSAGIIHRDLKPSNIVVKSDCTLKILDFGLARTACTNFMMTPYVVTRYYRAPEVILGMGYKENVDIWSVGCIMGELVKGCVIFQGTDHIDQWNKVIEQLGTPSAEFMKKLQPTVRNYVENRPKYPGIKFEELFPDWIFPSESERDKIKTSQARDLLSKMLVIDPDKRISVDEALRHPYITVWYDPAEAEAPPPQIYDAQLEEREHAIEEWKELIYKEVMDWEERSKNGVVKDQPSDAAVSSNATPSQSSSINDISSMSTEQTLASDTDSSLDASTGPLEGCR
Tyrosine-protein kinase Lck (Homo sapiens), sequence (P06239 2-509 limits assumed): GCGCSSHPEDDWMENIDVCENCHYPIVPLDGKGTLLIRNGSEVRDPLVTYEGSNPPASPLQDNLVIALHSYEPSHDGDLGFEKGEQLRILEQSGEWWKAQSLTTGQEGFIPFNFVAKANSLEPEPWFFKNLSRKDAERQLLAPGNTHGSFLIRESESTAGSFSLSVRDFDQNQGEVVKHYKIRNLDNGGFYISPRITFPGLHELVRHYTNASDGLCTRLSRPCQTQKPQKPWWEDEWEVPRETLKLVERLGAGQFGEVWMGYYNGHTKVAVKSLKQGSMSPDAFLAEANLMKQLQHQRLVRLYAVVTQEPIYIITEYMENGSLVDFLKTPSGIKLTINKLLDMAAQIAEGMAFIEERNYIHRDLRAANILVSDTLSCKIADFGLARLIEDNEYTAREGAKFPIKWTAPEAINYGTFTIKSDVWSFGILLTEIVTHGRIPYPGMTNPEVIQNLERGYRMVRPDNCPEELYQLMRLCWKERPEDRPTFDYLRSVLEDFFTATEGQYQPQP
RAF proto-oncogene serine/threonine-protein kinase (Homo sapiens), sequence (P04049 whole entry): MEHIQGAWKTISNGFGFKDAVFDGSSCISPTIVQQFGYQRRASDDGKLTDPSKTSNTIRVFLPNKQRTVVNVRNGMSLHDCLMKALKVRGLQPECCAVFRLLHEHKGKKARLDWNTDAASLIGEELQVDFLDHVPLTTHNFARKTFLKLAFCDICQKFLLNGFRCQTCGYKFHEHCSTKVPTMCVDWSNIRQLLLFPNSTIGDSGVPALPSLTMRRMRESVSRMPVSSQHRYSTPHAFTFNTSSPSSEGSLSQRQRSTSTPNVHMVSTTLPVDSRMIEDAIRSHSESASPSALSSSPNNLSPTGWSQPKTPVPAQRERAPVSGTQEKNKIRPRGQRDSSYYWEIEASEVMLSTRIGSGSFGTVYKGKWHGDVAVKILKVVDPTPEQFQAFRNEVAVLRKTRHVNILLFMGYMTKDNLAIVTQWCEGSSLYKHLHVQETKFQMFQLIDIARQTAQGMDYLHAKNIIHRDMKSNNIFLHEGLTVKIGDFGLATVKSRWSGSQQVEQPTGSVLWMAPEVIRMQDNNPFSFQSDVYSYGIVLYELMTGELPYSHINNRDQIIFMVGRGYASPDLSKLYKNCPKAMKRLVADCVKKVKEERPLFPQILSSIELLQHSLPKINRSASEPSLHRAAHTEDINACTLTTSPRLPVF

Row | IC50 [1] | Compound | further results
1 | 2.5 nM | C[C@H](Nc1nccc(-c2cc(N(C)C)nnc2-c2cccc(C(F)(F)F)c2)n1)c1ccccc1 | 
2 | 12000 nM | C[C@H](Nc1nccc(-c2nc(C3CCNCC3)n(C)c2-c2cccc(C(F)(F)F)c2)n1)c1ccccc1 | 
3 | 2.6 nM | C[C@H](Nc1nccc(-c2cc(N3CCOCC3)nnc2-c2cccc(C(F)(F)F)c2)n1)c1ccccc1 | inhibition [2]: 29%; inhibition [3]: 22%; pIC50 [4]: 5.85; pIC50 [5]: 6.09
4 |  | C[C@H](Nc1nccc(-c2nnc(C3CCNCC3)cc2-c2cccc(C(F)(F)F)c2)n1)c1ccccc1 | inhibition [6]: 4.81%
5 | 1.9 nM | C[C@H](Nc1nccc(-c2cc(N3CCN(C)CC3)nnc2-c2cccc(C(F)(F)F)c2)n1)c1ccccc1 | 
6 | 0.6 nM | C[C@H](Nc1nccc(-c2cc(N3CCNCC3)nnc2-c2cccc(C(F)(F)F)c2)n1)c1ccccc1 | 
7 | 1.4 nM | C[C@H](Nc1nccc(-c2cc(N(C)CCN(C)C)nnc2-c2cccc(C(F)(F)F)c2)n1)c1ccccc1 | 
8 | 20.1 nM | C[C@H](Nc1nccc(-c2cc(N3CCCCC3)nnc2-c2cccc(C(F)(F)F)c2)n1)c1ccccc1 | 
9 | 7.4 nM | CC1CCN(c2cc(-c3ccnc(N[C@@H](C)c4ccccc4)n3)c(-c3cccc(C(F)(F)F)c3)nn2)CC1 | 
